Experimental data taken from US4731451A, “N-((2-oxo-3(2H)benzothiazolyl)methyl)-2-chloroacetanilides” (Monsanto Company, priority 1980, dated 1988).

Tests used:
Assay in all cases: Pre-emergent herbicidal activity (Table II)
Type in all cases: in vivo
Conditions in all cases: 2-3 weeks
[1] = tested on: Barnyardgrass
Procedure: (§1) The pre-emergence tests are conducted as follows:
(§2) A good grade of top soil is placed in aluminum pans and compacted to a depth of three-eighths to one-half inch from the top of the pan. On the top of the soil is placed a predetermined number of seeds or vegetative propagules of various plant species. The soil required to level fill the pans after seeding or adding vegetative propagules is weighed into a pan. A known amount of the active ingredient applied in a solvent or as a wettable powder suspension and the soil are thoroughly mixed, and used as a cover layer for prepared pans. After treatment, the pans are moved into a greenhouse bench where they are watered from below as needed to give adequate moisture for germination and growth.
(§3) Approximately 2-3 weeks after seeding and treating, the plants are observed and the results recorded. The herbicidal rating is obtained by means of fixed scale based on the percent injury of each plant species. The ratings are defined as follows: […]
(§4) The plant species utilized in one set of tests, the data for which are shown in Table II, are identified by letter in accordance with the following legend: […]

[2] = tested on: Canada Thistle
Procedure: as §1, §2, §3, §4

[3] = tested on: Cocklebur
Procedure: as §1, §2, §3, §4

[4] = tested on: Downy Brome
Procedure: as §1, §2, §3, §4

[5] = tested on: Johnsongrass
Procedure: as §1, §2, §3, §4

[6] = tested on: Lambsquarters
Procedure: as §1, §2, §3, §4

[7] = tested on: Morningglory
Procedure: as §1, §2, §3, §4

[8] = tested on: Quackgrass
Procedure: as §1, §2, §3, §4

[9] = tested on: Smartweed
Procedure: as §1, §2, §3, §4

[10] = tested on: Velvetleaf
Procedure: as §1, §2, §3, §4

[11] = tested on: Yellow Nutsedge
Procedure: as §1, §2, §3, §4
Further: ranges in brackets are in %.

Compound: CCC1=C(N(Cn2c(=O)sc3ccccc32)C(=O)CCl)C(CC)CCC1 (stereo not drawn) [Example 5, N--[(2-oxo-3(2H)--benzothiazolyl)methyl]-N--(2,6-diethyl-1-cyclohexen-1-yl)-2-chloro-acetamide]
- Herbicidal rating ([1]; 5.6 kg/ha): 1 (25-49)
- Herbicidal rating ([1]; 11.2 kg/ha): 1 (25-49)
- Herbicidal rating ([2]; 5.6 kg/ha): 0 (0-24)
- Herbicidal rating ([2]; 11.2 kg/ha): 0 (0-24)
- Herbicidal rating ([3]; 5.6 kg/ha): 0 (0-24)
- Herbicidal rating ([3]; 11.2 kg/ha): 0 (0-24)
- Herbicidal rating ([4]; 5.6 kg/ha): 0 (0-24)
- Herbicidal rating ([4]; 11.2 kg/ha): 0 (0-24)
- Herbicidal rating ([5]; 5.6 kg/ha): 0 (0-24)
- Herbicidal rating ([5]; 11.2 kg/ha): 0 (0-24)
- Herbicidal rating ([6]; 5.6 kg/ha): 1 (25-49)
- Herbicidal rating ([6]; 11.2 kg/ha): 1 (25-49)
- Herbicidal rating ([7]; 5.6 kg/ha): 0 (0-24)
- Herbicidal rating ([7]; 11.2 kg/ha): 0 (0-24)
- Herbicidal rating ([8]; 5.6 kg/ha): 0 (0-24)
- Herbicidal rating ([8]; 11.2 kg/ha): 0 (0-24)
- Herbicidal rating ([9]; 5.6 kg/ha): 0 (0-24)
- Herbicidal rating ([9]; 11.2 kg/ha): 0 (0-24)
- Herbicidal rating ([10]; 5.6 kg/ha): 0 (0-24)
- Herbicidal rating ([10]; 11.2 kg/ha): 0 (0-24)
- Herbicidal rating ([11]; 5.6 kg/ha): 0 (0-24)
- Herbicidal rating ([11]; 11.2 kg/ha): 0 (0-24)

Compound: CC1=C(N(Cn2c(=O)sc3cc(Br)ccc32)C(=O)CCl)C(C)CCC1 (stereo not drawn) [Example 7, N--[(6-bromo-2-oxo-3(2H)--benzothiazolyl)methyl]-N--(2,6-dimethyl-1-cyclohexen-1-yl)-2-chloroacetamide]
- Herbicidal rating ([1]; 5.6 kg/ha): 1 (25-49)
- Herbicidal rating ([1]; 11.2 kg/ha): 1 (25-49)
- Herbicidal rating ([2]; 5.6 kg/ha): 0 (0-24)
- Herbicidal rating ([2]; 11.2 kg/ha): 0 (0-24)
- Herbicidal rating ([3]; 5.6 kg/ha): 0 (0-24)
- Herbicidal rating ([3]; 11.2 kg/ha): 0 (0-24)
- Herbicidal rating ([4]; 5.6 kg/ha): 0 (0-24)
- Herbicidal rating ([4]; 11.2 kg/ha): 0 (0-24)
- Herbicidal rating ([5]; 5.6 kg/ha): 0 (0-24)
- Herbicidal rating ([5]; 11.2 kg/ha): 0 (0-24)
- Herbicidal rating ([6]; 5.6 kg/ha): 0 (0-24)
- Herbicidal rating ([6]; 11.2 kg/ha): 1 (25-49)
- Herbicidal rating ([7]; 5.6 kg/ha): 0 (0-24)
- Herbicidal rating ([7]; 11.2 kg/ha): 0 (0-24)
- Herbicidal rating ([8]; 5.6 kg/ha): 0 (0-24)
- Herbicidal rating ([8]; 11.2 kg/ha): 0 (0-24)
- Herbicidal rating ([9]; 5.6 kg/ha): 0 (0-24)
- Herbicidal rating ([9]; 11.2 kg/ha): 0 (0-24)
- Herbicidal rating ([10]; 5.6 kg/ha): 0 (0-24)
- Herbicidal rating ([10]; 11.2 kg/ha): 0 (0-24)
- Herbicidal rating ([11]; 5.6 kg/ha): 0 (0-24)
- Herbicidal rating ([11]; 11.2 kg/ha): 0 (0-24)

Compound: CCOc1ccc2c(c1)sc(=O)n2CN(C(=O)CCl)C1=C(C)C(C)CCC1 (stereo not drawn) [Example 8, N--[(6-ethoxy-2-oxo-3(2H)--benzothiazolyl)methyl]-N--(2,3-dimethyl-1-cyclohexen-1-yl)-2-chloroacetamide]
- Herbicidal rating ([1]; 5.6 kg/ha): 1 (25-49)
- Herbicidal rating ([1]; 11.2 kg/ha): 0 (0-24)
- Herbicidal rating ([2]; 5.6 kg/ha): 0 (0-24)
- Herbicidal rating ([2]; 11.2 kg/ha): 0 (0-24)
- Herbicidal rating ([3]; 5.6 kg/ha): 0 (0-24)
- Herbicidal rating ([4]; 5.6 kg/ha): 0 (0-24)
- Herbicidal rating ([4]; 11.2 kg/ha): 0 (0-24)
- Herbicidal rating ([5]; 5.6 kg/ha): 0 (0-24)
- Herbicidal rating ([5]; 11.2 kg/ha): 0 (0-24)
- Herbicidal rating ([6]; 5.6 kg/ha): 0 (0-24)
- Herbicidal rating ([6]; 11.2 kg/ha): 0 (0-24)
- Herbicidal rating ([7]; 5.6 kg/ha): 0 (0-24)
- Herbicidal rating ([7]; 11.2 kg/ha): 0 (0-24)
- Herbicidal rating ([8]; 5.6 kg/ha): 0 (0-24)
- Herbicidal rating ([8]; 11.2 kg/ha): 0 (0-24)
- Herbicidal rating ([9]; 5.6 kg/ha): 0 (0-24)
- Herbicidal rating ([9]; 11.2 kg/ha): 0 (0-24)
- Herbicidal rating ([10]; 5.6 kg/ha): 0 (0-24)
- Herbicidal rating ([10]; 11.2 kg/ha): 0 (0-24)
- Herbicidal rating ([11]; 5.6 kg/ha): 0 (0-24)
- Herbicidal rating ([11]; 11.2 kg/ha): 0 (0-24)

Compound: CC1=C(N(Cn2c(=O)oc3ccccc32)C(=O)CCl)C(C)CCC1 (stereo not drawn) [Example 11, N--[(2-oxo-3(2H)--benzoxazolyl)methyl]-N--(2,6-dimethyl-1-cyclohexen-1-yl)-2-chloro-amide]
- Herbicidal rating ([1]; 5.6 kg/ha): 3 (75-100)
- Herbicidal rating ([1]; 11.2 kg/ha): 3 (75-100)
- Herbicidal rating ([2]; 5.6 kg/ha): 0 (0-24)
- Herbicidal rating ([2]; 11.2 kg/ha): 0 (0-24)
- Herbicidal rating ([3]; 5.6 kg/ha): 0 (0-24)
- Herbicidal rating ([3]; 11.2 kg/ha): 0 (0-24)
- Herbicidal rating ([4]; 5.6 kg/ha): 3 (75-100)
- Herbicidal rating ([4]; 11.2 kg/ha): 3 (75-100)
- Herbicidal rating ([5]; 5.6 kg/ha): 0 (0-24)
- Herbicidal rating ([5]; 11.2 kg/ha): 0 (0-24)
- Herbicidal rating ([6]; 5.6 kg/ha): 2 (50-74)
- Herbicidal rating ([6]; 11.2 kg/ha): 1 (25-49)
- Herbicidal rating ([7]; 5.6 kg/ha): 0 (0-24)
- Herbicidal rating ([7]; 11.2 kg/ha): 0 (0-24)
- Herbicidal rating ([8]; 5.6 kg/ha): 1 (25-49)
- Herbicidal rating ([8]; 11.2 kg/ha): 3 (75-100)
- Herbicidal rating ([9]; 5.6 kg/ha): 0 (0-24)
- Herbicidal rating ([9]; 11.2 kg/ha): 0 (0-24)
- Herbicidal rating ([10]; 5.6 kg/ha): 0 (0-24)
- Herbicidal rating ([10]; 11.2 kg/ha): 0 (0-24)
- Herbicidal rating ([11]; 5.6 kg/ha): 3 (75-100)
- Herbicidal rating ([11]; 11.2 kg/ha): 1 (25-49)
